Assay results published in paper PMC5613772 (Biochemistry and Biophysics Reports, 2016).

Legend:
[1] = biological target: T1, L. donovani Gcs full length (GcsF, LdGcs, Gcs) (Leishmania donovani, UniProt Q67BG3); test: tryptophan fluorescence quenching; format: binding
T1 sequence (Q67BG3 1-687): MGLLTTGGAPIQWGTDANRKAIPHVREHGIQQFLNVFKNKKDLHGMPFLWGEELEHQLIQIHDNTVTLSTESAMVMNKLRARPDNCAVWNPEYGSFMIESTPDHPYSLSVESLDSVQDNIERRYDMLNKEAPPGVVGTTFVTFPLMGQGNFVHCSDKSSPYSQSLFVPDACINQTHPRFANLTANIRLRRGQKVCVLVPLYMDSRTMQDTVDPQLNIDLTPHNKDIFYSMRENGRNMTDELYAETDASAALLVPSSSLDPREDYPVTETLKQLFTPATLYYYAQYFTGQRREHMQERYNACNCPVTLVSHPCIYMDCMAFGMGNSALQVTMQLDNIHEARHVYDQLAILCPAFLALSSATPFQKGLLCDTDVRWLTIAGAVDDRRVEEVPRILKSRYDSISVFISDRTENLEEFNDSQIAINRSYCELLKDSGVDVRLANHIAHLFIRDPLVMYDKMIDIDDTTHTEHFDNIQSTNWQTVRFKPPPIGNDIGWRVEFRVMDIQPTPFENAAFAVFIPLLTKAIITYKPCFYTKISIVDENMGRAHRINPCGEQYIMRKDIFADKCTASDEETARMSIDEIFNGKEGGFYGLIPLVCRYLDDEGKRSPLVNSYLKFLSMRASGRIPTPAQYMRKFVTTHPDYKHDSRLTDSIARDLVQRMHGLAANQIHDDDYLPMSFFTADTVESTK

[2] = biological target: L. donovani Gcs full length (GcsF, LdGcs, Gcs) (Leishmania donovani, UniProt Q67BG3, R498A); test: biochemical
[3] = biological target: L. donovani Gcs full length (GcsF, LdGcs, Gcs) (Leishmania donovani, UniProt Q67BG3, E92A); test: biochemical
[4] = biological target: L. donovani Gcs full length (GcsF, LdGcs, Gcs) (Leishmania donovani, UniProt Q67BG3, E55A); test: biochemical
[5] = biological target: L. donovani Gcs full length (GcsF, LdGcs, Gcs) (Leishmania donovani, UniProt Q67BG3, E99A); test: biochemical
GcsC = GcsC (Leishmania donovani, UniProt Q67BG3); details: value said to be in Table 2 but not printed there

| Structure (SMILES) | Kd [1] [µM] | Kd [2] [µM] | Kd [3] [µM] | Kd [4] [µM] | Kd [5] [µM] | ITC or tryptophan fluorescence quenching (not told) (GcsC) |
| --- | --- | --- | --- | --- | --- | --- |
| N[C@@H](CCC(=O)O)C(=O)O [L-Glutamate] | 93.7 ± 1.8 | 890 ± 0.167 | 107 ± 0.16 | 793 ± 0.182 | 666 ± 0.3 | – |
| N[C@@H](CS)C(=O)O [L-Cysteine] | 177 ± 2.6 | – | 115 ± 0.35 | 95 ± 2.1 | – | – |
| Nc1ncnc2c1ncn2[C@@H]1O[C@H](COP(=O)(O)OP(=O)(O)OP(=O)(O)O)[C@@H](O)[C@H]1O [ATP] | 2.7 ± 0.3 | 1550 ± 238 | 3235 ± 0.937 | 2.5 ± 1 | 5.8 ± 0.3 | GcsT and C-terminal constructs also show comparable binding with ATP |
